The record followed here is patent US20050031679A1, “Method for producing liposomal formulations of active ingredients” (priority 1998, published 2005).

The series is described as follows: Efficiency of inclusion of active ingredient added subsequently to a finished liposome gel. Type of series: physicochemical. The text has this: This object is achieved by a method for producing liposomes which comprise as active ingredient at least one physiologically active or/and diagnostic compound, by production of a mixture of membrane-forming amphiphiles, dispersion of the mixture in water and high pressure homogenization of the dispersion until the liposomes are formed, which comprises • (a) adding the active ingredient to any liposome preparation, preferably a liposome gel, which contains at least 20% by weight lipid, and • (b) incubating the active ingredient-containing mixture, where appropriate with mechanical agitation, until • (i) hydrophilic active ingredients are distributed in the liposomes and between the liposomes in accordance with the proportions by volume of aqueous medium inside and outside the liposomes in the preparation (equilibrium state) or • (ii) lipophilic compounds are incorporated in the lipid bilayer, or • (iii) amphiphilic compounds have surmounted the lipid bilayer and are incorporated or associated in the outer regions of the lipid bilayer.
A liposome gel which contains the cytostatic gemcitabine as active component cannot be autoclaved because this antitumor agent promotes the hydrolysis of the phospholipids, leading to complete phospholipid degradation under standard conditions during autoclaving. […]

For `C[C@@H]1[C@H](O)[C@@H](C)/C=C/C=C/C=C/C=C/C=C/C=C/C=C/[C@H](O[C@@H]2O[C@H](C)[C@@H](O)[C@H](N)[C@@H]2O)C[C@@H]2O[C@](O)(C[C@@H](O)C[C@@H](O)[C@H](O)CC[C@@H](O)C[C@@H](O)CC(=O)O[C@H]1C)C[C@H](O)[C@H]2C(=O)O` [amphotericin B], the efficiency of inclusion (added as solid substance to the liposome gel, incubated with shaking at 50° C. for 3 hours) is given as 95%. On to `Nc1ccn([C@@H]2O[C@H](CO)[C@@H](O)C2(F)F)c(=O)n1` [gemcitabine], for which the efficiency of inclusion entry (autoclaved liposome gel mixed with concentrated buffered gemcitabine solution, incubation at 60° C. for four hours (equilibrium)) was “more than 30%”.
